Experimental data taken from patent US4431634A, “Prenatal iron supplements” (American Cyanamid Company, priority 1981, dated 1984).
Like-named read-outs stand apart in the source and are kept apart here.

Tests used:
[1] = human, in vivo
Procedure: (§1) The absorption of iron was established by collection of venous blood samples collected by hypodermic syringe and clotted at room temperature for one hour in silicone coated glass tubes. The tubes were centrifuged at 4,000 g for 30 minutes at 4° C. to isolate the serum which is removed and stored at -20° C. The serum samples were assayed for serum iron via spectrophotometry using ferrozine reagent.
(§2) The tests were conducted in healthy menstruating female volunteers 21 to 45 years of age having normal hemoglobin and hematocrit valves. The subjects fasted overnight. Fifteen to 24 subjects were used in each study. Each study was conducted as a randomized crossover trial with the composition being administered at 8 a.m. at 3 to 4 day intervals. Blood was first taken in the fasting state. Then the preparation was administered using 50 ml of deionized water and the subjects remained fasting until the final blood sample was obtained. Serum iron levels were assayed in duplicate on a blind basis.
(§3) All valves were corrected using this valve for diurnal variation. Values for iron absorption were calculated from the increases in serum iron concentration measured 2 to 6 hours after iron ingestion.
(§4) In each case, the quantities of mineral stated are on the basis of the elemental metal as opposed to the weight of the entire salt.
(§5) This study involved 15 female subjects of child bearing age.
(§6) Again, 15 females of child bearing age were studied using ferrous fumarate alone and in combinations of calcium sulfate (CS), calcium carbonate (CC) and magnesium oxide (MX). The study involved 15 females of child bearing age with data obtained three hours after oral ingestion.
(§7) The data were obtained 3 hours after oral ingestion.

[2] = Iron absorption in healthy menstruating female volunteers (serum iron after oral ingestion, randomized crossover; Studies I-IV); conditions: 3 hours after oral ingestion; for effect of co-administered mineral salt on iron absorption: Study II, co-administered with ferrous fumarate
Procedure: as §1, §2, §3, §4, §5, §6, §7

SMILES: O=C([O-])/C=C/C(=O)[O-].[Fe+2] [Ferrous fumarate, ferrous fumarate, reference compound]
- Calculated mean values for iron absorption, Average [1]: 8.1 mg

SMILES: O=C(O)O [calcium carbonate]
- effect of co-administered mineral salt on iron absorption [2]: additive inhibitory effects on iron absorption
- effect of mineral component on bioavailability of the iron supplement ([2]; Study III, mineral components of the formulations): depressant effects

SMILES: O=S(=O)([O-])[O-].[Ca+2] [Plaster of paris, calcium sulfate]
- effect of co-administered mineral salt on iron absorption [2]: does not seem to be inhibitory

SMILES: [O]=[Mg] [magnesium oxide]
- effect of co-administered mineral salt on iron absorption ([1]; po): additive inhibitory effects on iron absorption
- effect of mineral component on bioavailability of the iron supplement ([1]; po): depressant effects
